{"source": "patent US20230049130A1", "about": "“DEUCRAVACITINIB CRYSTAL FORM, PREPARATION METHOD THEREFOR AND USE THEREOF” (CRYSTAL PHARMACEUTICAL (SUZHOU) CO., LTD., priority 2020, published 2023)", "type_in_all_cases": "physicochemical", "key": {"[1]": {"assay": "Kinetic solubility in SGF, FeSSIF and FaSSIF (HPLC)", "experimental": "When solubility test is used to predict the in vivo performance of a drug, it is critical to simulate in vivo conditions as closely as possible. Simulated gastric fluid (SGF), Fed-state simulated intestinal fluid (FeSSIF) and Fasted-state simulated intestinal fluid (FaSSIF) can be used to simulate the conditions in vivo and predict the effects of eating, thus solubilities in these media are closer to those in vivo.\n15-20 mg of Form CSIII of the present disclosure and 15-20 mg of Form A were suspended into 2.5 mL of SGF, 2.5 mL of FeSSIF, and 2.5 mL of FaSSIF to get suspensions. After equilibrated for 1 h and 4 h, concentrations of these solutions were measured by HPLC."}, "[2]": {"assay": "Bulk and tapped density", "settings": "for Bulk density: about 500 mg powder in 5-mL cylinder; for Tapped density: tapped 1250 times", "experimental": "About 500 mg of powder were added into a 5-mL measuring cylinder and bulk volume was recorded. Then the powder was tapped for 1250 times by ZS-2E tap density tester to make it in the tightest state and the tapped volume was recorded. The bulk density and tapped density were calculated."}, "[3]": {"assay": "Stability of Form CSIII on storage (XRPD, HPLC purity)", "settings": "for Crystalline form after storage: XRPD", "experimental": "Approximately 5 mg of Form CSIII samples was stored under different conditions of 25° C./60%RH, 40° C./75%RH, and 60° C./75%RH. Crystalline form and chemical purity were checked by XRPD and HPLC, respectively."}, "[4]": {"assay": "Physical stability upon humidity change (DVS, XRPD)", "settings": "cycle of 0%-95%-0%RH at 25° C.", "experimental": "Dynamic Vapor Sorption (DVS) is measured via an SMS (Surface Measurement Systems Ltd.) intrinsic DVS instrument. Its control software is DVS- Intrinsic control software, and its analysis software is DVS-Intrinsic Analysis software. Typical Parameters for DVS test are as follows: • Temperature: 25° C. • Gas and flow rate: N2, 200 mL/min • RH range: 0% RH to 95% RH\nDynamic vapor sorption (DVS) was applied to test the stability of Form CSIII. A certain amount of Form CSIII was tested in a cycle of 0%-95%-0%RH at 25° C."}, "[5]": {"assay": "Physical stability under pressure (tableting, XRPD)", "settings": "compressed under 5 kN, 10 kN and 20 kN", "description": "A certain amount of Form CSIII was compressed into tablets under 5 kN, 10 kN and 20 kN with suitable tableting die. Crystalline forms before and after tableting were checked by XRPD."}, "[6]": {"assay": "Physical stability upon grinding (XRPD)", "settings": "ground manually 5 minutes in a mortar", "experimental": "Form CSIII sample was grounded manually for 5 minutes in a mortar. Crystalline forms before and after grinding were checked by XRPD."}, "[7]": {"settings": "applicant's characterisation of repeated prior-art form"}}}
{"smiles": "[2H]C([2H])([2H])NC(=O)c1nnc(NC(=O)C2CC2)cc1Nc1cccc(-c2ncn(C)n2)c1OC", "note": "[Form A, 6-(cyclopropanecarboxamido)-4-((2-methoxy-3-(1-methyl-1H-1,2,4-triazol-3-yl)phenyl)amino)-N-(methyl-d3) pyridazine-3-carboxamide, reference compound]", "values": [{"measurement": "Concentration", "setting": "[1]; FaSSIF, equilibrated 1 hour", "result": 13.5, "unit": "µg/mL"}, {"measurement": "Concentration", "setting": "[1]; FaSSIF, equilibrated 4 hours", "result": 13.6, "unit": "µg/mL"}, {"measurement": "Concentration", "setting": "[1]; FeSSIF, equilibrated 1 hour", "result": 82.3, "unit": "µg/mL"}, {"measurement": "Concentration", "setting": "[1]; FeSSIF, equilibrated 4 hours", "result": 68.8, "unit": "µg/mL"}, {"measurement": "Concentration", "setting": "[1]; SGF, equilibrated 1 hour", "result": 1114.1, "unit": "µg/mL"}, {"measurement": "Concentration", "setting": "[1]; SGF, equilibrated 4 hours", "result": 617.2, "unit": "µg/mL"}, {"measurement": "Solubility (in words)", "setting": "[1]; [7]", "result": "poor solubility"}, {"measurement": "Bulk density", "setting": "[2]", "result": 0.3899, "unit": "g/mL"}, {"measurement": "Density (in words)", "setting": "[2]; [7]", "result": "low density"}, {"measurement": "Tapped density", "setting": "[2]", "result": 0.5199, "unit": "g/mL"}]}
{"smiles": "[2H]C([2H])([2H])NC(=O)c1nnc(NC(=O)C2CC2)cc1Nc1cccc(-c2ncn(C)n2)c1OC", "note": "[Form CSIII, 6-(cyclopropanecarboxamido)-4-((2-methoxy-3-(1-methyl-1H-1,2,4-triazol-3-yl)phenyl)amino)-N-(methyl-d3) pyridazine-3-carboxamide]", "values": [{"measurement": "Time stable on storage", "setting": "[3]; 25° C./60% RH", "result": "at least 3 months"}, {"measurement": "Crystalline form after storage", "setting": "[3]; 25° C./60%RH (open), 3 months", "result": "Form CSIII"}, {"measurement": "Crystalline form after storage", "setting": "[3]; 25° C./60%RH (sealed), 3 months", "result": "Form CSIII"}, {"measurement": "Time stable on storage", "setting": "[3]; 40° C./75% RH", "result": "at least 3 months"}, {"measurement": "Crystalline form after storage", "setting": "[3]; 40° C./75%RH (open), 3 months", "result": "Form CSIII"}, {"measurement": "Crystalline form after storage", "setting": "[3]; 40° C./75%RH (sealed), 3 months", "result": "Form CSIII"}, {"measurement": "Time stable on storage", "setting": "[3]; 60° C./75% RH", "result": "at least one month"}, {"measurement": "Change in chemical purity during storage", "setting": "[3]; 60° C./75% RH, one month, open condition, HPLC", "result": 0.07, "unit": "%"}, {"measurement": "Crystalline form after storage", "setting": "[3]; 60° C./75%RH (open), one month", "result": "Form CSIII"}, {"measurement": "Crystalline form after storage", "setting": "[3]; 60° C./75%RH (sealed), one month", "result": "Form CSIII"}, {"measurement": "Crystalline state after DVS test", "setting": "[4]", "result": "does not change"}, {"measurement": "Crystalline state after tableting", "setting": "[5]", "result": "does not change"}, {"measurement": "Concentration", "setting": "[1]; FaSSIF, equilibrated 1 hour", "result": 49, "unit": "µg/mL"}, {"measurement": "Solubility relative to that of Form A", "setting": "[1]; FaSSIF, equilibrated 1 hour", "result": 3.6, "unit": "times"}, {"measurement": "Concentration", "setting": "[1]; FaSSIF, equilibrated 4 hours", "result": 55.7, "unit": "µg/mL"}, {"measurement": "Solubility relative to that of Form A", "setting": "[1]; FaSSIF, equilibrated 4 hours", "result": 4.1, "unit": "times"}, {"measurement": "Concentration", "setting": "[1]; FeSSIF, equilibrated 1 hour", "result": 193.6, "unit": "µg/mL"}, {"measurement": "Concentration", "setting": "[1]; FeSSIF, equilibrated 4 hours", "result": 179.3, "unit": "µg/mL"}, {"measurement": "Concentration", "setting": "[1]; SGF, equilibrated 1 hour", "result": 1582.4, "unit": "µg/mL"}, {"measurement": "Concentration", "setting": "[1]; SGF, equilibrated 4 hours", "result": 1296.8, "unit": "µg/mL"}, {"measurement": "Crystalline state after grinding", "setting": "[6]", "result": "does not change"}, {"measurement": "Bulk density", "setting": "[2]", "result": 0.4276, "unit": "g/mL"}, {"measurement": "Tapped density", "setting": "[2]", "result": 0.5987, "unit": "g/mL"}]}
